Results on 19 molecules are retold here after ChEMBL document CHEMBL1146959, “Design and structure-activity relationship of heterocyclic analogs of 4-amino-3-benzimidazol-2-ylhydroquinolin-2-ones as inhibitors of receptor tyrosine kinases” (Bioorg Med Chem Lett, 2006).

Molecules are shown by their SMILES.

For series [1], the system named is HMEC. As to the kind of experiment: Activity against HMVEC. Type of series: functional, cell-based. The following applies: Homo sapiens.
The target of series [2] is Fibroblast growth factor receptor 1 (Homo sapiens, UniProt P11362). In words: Inhibitory activity against FGFR1.
Series [3] concerns the target Vascular endothelial growth factor receptor 2 (Mus musculus, UniProt P35918). In words: Inhibitory activity against VEGFR2.
The target in series [4] is Platelet-derived growth factor receptor beta (Mus musculus, UniProt P05622). In words: Inhibitory activity against PDGFRbeta.
Series [5] can be described thus: Half life in mice at 20 mg/kg, po. More on the design: dose 20 mg/kg, route oral. It counts as ADME, organism-based. To be noted: mouse, in vivo.
Series [6] can be described thus: Clearance in mice. It counts as ADME, organism-based. To be noted: mouse, in vivo.
Series [7] in a line: Half life in mice at 5 mg/kg, iv. Type of series: ADME, organism-based. More on the design: dose 5 mg/kg, route intravenous. The following applies: mouse, in vivo.
Series [8] can be described thus: Oral bioavailability in mice. It counts as ADME, organism-based. To be noted: mouse, in vivo.
For series [9], the target named is Vascular endothelial growth factor receptor 1 (Homo sapiens, UniProt P17948).
Chain of Vascular endothelial growth factor receptor 1 (P17948 whole entry): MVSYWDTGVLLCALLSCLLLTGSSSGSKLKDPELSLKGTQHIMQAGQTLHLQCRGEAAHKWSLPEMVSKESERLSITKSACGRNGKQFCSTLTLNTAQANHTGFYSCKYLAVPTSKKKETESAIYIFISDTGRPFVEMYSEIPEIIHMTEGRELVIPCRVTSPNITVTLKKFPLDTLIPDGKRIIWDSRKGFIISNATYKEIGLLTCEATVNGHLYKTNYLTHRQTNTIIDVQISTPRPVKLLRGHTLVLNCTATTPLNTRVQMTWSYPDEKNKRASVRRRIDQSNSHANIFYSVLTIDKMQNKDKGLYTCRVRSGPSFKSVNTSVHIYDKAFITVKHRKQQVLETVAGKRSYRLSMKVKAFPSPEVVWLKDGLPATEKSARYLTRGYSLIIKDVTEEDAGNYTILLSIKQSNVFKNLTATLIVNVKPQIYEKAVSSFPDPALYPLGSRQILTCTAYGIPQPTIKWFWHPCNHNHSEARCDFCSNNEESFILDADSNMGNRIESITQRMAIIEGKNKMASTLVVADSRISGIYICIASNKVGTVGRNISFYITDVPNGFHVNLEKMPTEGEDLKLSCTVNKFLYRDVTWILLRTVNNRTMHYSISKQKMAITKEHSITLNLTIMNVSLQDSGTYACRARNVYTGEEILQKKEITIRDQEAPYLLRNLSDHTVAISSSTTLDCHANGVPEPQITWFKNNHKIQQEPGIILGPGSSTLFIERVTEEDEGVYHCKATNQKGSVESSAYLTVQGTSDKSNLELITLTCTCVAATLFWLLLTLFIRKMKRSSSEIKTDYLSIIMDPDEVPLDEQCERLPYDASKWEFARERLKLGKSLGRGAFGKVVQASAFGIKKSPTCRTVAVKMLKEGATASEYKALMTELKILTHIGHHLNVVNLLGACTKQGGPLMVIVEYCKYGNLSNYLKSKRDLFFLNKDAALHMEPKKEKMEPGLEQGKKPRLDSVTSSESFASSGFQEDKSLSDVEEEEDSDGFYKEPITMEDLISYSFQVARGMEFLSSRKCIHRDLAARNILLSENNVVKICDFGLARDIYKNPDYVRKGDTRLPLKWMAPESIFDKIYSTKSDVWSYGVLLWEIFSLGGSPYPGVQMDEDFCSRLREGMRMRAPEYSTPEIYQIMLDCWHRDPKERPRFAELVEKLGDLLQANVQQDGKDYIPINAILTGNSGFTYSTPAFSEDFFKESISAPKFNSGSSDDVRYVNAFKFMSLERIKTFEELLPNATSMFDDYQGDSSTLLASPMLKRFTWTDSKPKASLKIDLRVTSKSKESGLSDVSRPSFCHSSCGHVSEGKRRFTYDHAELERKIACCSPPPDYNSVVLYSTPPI
Description: Inhibitory activity against VEGFR1

Chain of Platelet-derived growth factor receptor beta (P05622 whole entry): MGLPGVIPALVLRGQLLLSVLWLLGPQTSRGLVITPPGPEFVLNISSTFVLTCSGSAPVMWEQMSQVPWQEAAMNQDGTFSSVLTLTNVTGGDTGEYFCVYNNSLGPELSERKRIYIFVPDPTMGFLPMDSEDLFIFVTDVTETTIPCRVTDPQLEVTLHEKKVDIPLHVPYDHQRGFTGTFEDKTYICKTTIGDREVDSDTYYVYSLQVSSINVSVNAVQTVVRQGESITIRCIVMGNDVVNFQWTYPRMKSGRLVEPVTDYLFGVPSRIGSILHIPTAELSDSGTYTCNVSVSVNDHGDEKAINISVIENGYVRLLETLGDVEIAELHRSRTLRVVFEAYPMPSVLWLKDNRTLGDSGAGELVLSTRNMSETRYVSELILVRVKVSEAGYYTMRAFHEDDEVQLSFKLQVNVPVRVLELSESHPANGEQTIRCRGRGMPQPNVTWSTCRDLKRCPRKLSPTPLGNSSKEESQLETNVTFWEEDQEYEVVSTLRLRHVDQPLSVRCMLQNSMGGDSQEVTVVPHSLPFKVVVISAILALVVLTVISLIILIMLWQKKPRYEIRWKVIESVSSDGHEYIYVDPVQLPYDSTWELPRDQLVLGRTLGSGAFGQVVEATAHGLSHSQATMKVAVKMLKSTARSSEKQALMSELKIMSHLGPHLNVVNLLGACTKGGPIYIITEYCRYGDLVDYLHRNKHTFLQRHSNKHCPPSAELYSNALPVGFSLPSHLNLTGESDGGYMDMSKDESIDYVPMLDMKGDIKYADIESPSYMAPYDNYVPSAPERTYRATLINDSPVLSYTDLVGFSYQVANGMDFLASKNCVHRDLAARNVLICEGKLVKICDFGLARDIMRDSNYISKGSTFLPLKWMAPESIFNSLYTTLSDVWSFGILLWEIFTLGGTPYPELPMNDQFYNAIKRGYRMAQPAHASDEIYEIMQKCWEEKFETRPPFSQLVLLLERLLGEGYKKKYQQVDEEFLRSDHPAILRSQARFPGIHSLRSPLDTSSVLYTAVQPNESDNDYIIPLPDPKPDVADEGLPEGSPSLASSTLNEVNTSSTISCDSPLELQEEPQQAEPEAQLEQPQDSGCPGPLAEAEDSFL
Chain of Vascular endothelial growth factor receptor 2 (P35918 whole entry): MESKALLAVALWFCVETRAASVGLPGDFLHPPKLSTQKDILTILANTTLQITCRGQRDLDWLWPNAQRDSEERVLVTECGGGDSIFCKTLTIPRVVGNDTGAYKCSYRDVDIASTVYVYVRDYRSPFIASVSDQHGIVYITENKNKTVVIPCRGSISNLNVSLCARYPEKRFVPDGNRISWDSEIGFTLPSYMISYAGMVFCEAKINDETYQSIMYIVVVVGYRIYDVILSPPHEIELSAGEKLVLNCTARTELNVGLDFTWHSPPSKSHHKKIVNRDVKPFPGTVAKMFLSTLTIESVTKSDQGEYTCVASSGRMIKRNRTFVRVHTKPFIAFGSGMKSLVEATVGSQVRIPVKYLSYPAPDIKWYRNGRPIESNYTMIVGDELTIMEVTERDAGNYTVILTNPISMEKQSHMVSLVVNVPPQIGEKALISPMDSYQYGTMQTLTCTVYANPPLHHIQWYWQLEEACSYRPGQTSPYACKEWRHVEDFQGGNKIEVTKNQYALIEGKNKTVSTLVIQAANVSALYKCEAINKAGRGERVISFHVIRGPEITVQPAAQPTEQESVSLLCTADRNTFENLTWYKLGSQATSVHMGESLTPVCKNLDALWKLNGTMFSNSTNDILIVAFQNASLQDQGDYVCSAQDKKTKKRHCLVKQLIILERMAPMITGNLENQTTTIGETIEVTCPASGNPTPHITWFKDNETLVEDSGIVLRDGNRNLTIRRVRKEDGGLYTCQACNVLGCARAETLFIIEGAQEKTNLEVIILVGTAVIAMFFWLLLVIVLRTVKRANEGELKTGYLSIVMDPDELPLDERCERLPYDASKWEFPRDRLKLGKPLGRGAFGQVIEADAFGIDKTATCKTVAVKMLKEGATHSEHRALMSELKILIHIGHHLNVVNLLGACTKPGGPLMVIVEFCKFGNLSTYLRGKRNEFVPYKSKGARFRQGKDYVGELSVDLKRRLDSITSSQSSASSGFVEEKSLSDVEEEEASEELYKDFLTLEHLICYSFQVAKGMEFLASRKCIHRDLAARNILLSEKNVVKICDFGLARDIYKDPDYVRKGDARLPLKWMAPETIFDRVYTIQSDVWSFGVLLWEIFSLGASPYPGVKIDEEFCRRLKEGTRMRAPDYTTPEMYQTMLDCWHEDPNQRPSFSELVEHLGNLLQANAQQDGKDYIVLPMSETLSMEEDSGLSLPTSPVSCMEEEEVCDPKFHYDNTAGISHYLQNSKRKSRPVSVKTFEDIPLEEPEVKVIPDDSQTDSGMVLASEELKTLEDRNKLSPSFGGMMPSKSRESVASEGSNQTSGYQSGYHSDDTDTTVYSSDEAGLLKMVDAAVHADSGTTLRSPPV
Chain of Fibroblast growth factor receptor 1 (P11362 whole entry): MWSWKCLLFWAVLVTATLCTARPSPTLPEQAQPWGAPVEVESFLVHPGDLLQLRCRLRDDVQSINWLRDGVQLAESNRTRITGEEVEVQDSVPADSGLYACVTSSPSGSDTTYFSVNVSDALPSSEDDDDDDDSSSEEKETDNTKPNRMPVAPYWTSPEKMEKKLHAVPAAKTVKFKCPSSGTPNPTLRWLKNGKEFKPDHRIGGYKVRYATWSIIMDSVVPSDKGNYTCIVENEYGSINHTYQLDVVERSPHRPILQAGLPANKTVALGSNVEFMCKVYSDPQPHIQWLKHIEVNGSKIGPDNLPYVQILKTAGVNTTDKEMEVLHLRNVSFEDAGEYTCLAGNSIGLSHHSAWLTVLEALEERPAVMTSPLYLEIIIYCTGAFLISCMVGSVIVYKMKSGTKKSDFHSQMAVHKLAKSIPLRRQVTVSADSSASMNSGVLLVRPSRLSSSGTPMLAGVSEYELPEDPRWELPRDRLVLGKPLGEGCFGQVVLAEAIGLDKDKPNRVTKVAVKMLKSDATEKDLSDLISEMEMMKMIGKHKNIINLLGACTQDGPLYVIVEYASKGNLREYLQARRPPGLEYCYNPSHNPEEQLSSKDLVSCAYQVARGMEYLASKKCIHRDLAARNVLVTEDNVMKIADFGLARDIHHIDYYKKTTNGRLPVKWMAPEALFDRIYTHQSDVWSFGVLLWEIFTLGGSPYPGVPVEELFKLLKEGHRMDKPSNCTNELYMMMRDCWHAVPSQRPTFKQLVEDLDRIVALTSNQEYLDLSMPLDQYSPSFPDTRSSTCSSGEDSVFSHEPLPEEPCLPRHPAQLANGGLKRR

In series [1], `CN1CCN(c2ccc3nc(-c4c(N)c5ccccc5[nH]c4=O)[nH]c3n2)CC1` showed an EC50 of 51 nM. In addition, the IC50 turned out to be 10 nM in series [2], 24 nM in [3] and 30 nM in [4].
Taken in the same sequence, the figures for `CN1CCN(c2ccc3[nH]c(-c4c(N)c5ccccc5[nH]c4=O)nc3c2)CC1` were 20 nM, 8 nM, 13 nM and 27 nM.
Taken in the same sequence, the figures for `Nc1c2ncnc-2[nH]c(O)c1-c1nc2ccccc2[nH]1` were 3680 nM, 2660 nM, 552 nM and 154 nM.
For `Nc1c(-c2nc3cccnc3[nH]2)c(=O)[nH]c2cnccc12`, in that order: 77 nM, 30 nM, 12 nM and 49 nM.
Turning to `Nc1c(-c2nc3cc(N4CCOCC4)ccc3[nH]2)c(O)nc2cnccc12`, the half-life in series [5] was determined as 1.3 h; in series [7] it was 0.433 h. The EC50 in [1] worked out at 84 nM. In [6], this molecule had a clearance of 24 mL/min/kg. In [8], this molecule returned a bioavailability of 87%. Also, the half-maximal inhibitory concentration (IC50) in series [2] came out at 10 nM; in series [3], 2 nM; in [4], 64 nM.
With `Nc1c2cnnc-2[nH]c(O)c1-c1nc2ccccc2[nH]1`, in series [1], the EC50 amounted to 3820 nM. The IC50 was found to be 3170 nM in series [2], 507 nM in series [3] and 326 nM in series [4].
For `Nc1c(-c2nc3cc(N4CCOCC4)ccc3[nH]2)c(O)nc2ccncc12`, in that order: 768 nM, 100 nM, 57 nM and 18 nM.
`Nc1c(-c2nc3ccccc3[nH]2)c(=O)[nH]c2ccccc12`: the half-maximal inhibitory concentration (IC50) is 28 nM in series [9], 44 nM in [2], 25 nM in [3] and 102 nM in [4].
The molecule `Nc1c(-c2nc3cccnc3[nH]2)c(=O)[nH]c2ccccc12` returned an EC50 in series [1] of 88 nM. Further, the IC50 in series [2] turned out to be 51 nM; in [3], 16 nM; in series [4], 25 nM.
Taken in the same sequence, the figures for `Oc1nc2ncccc2c(O)c1-c1nc2ccccc2[nH]1` were over 10000 nM, 5000 nM, 3000 nM and 6530 nM.
Turning to `Nc1c(-c2nc3cc(N4CCOCC4)ccc3[nH]2)c(=O)[nH]c2ccccc12`, the half-life in [5] is 3.6 h; in [7], 1.18 h. Besides, in series [1], the EC50 amounted to 40 nM. In addition, the clearance in series [6] was determined as 13 mL/min/kg. For the same molecule, in series [8], the bioavailability is 100%. The IC50 turned out to be 21 nM in [2], 4 nM in [3] and 38 nM in series [4].
`Nc1c(-c2nc3ccccc3[nH]2)c(O)nc2sccc12`: a half-maximal effect in [1] (EC50) was put at 850 nM. For the same molecule, the IC50 in [2] worked out at 348 nM; in series [3], 109 nM; in series [4], 691 nM.
For `CN1CCN(c2ccc3[nH]c(-c4c(O)nc5cccnc5c4N)nc3c2)CC1`, in that order: 89 nM, 43 nM, 33 nM and 55 nM.
`Oc1nc2cnccc2c(O)c1-c1nc2ccccc2[nH]1` came in with an EC50 in series [1] of 2200 nM. The results for the IC50 in series [2], in series [3] and in series [4] were 576 nM, 168 nM and 1590 nM, respectively.
Taken in the same sequence, the figures for `CN1CCN(c2ccc3[nH]c(-c4c(O)nc5cnccc5c4N)nc3c2)CC1` were 16 nM, 4 nM, 1 nM and 43 nM.
`O=c1[nH]c2ccccc2c(O)c1-c1nc2ccccc2[nH]1` returned an EC50 in series [1] of 428 nM. In addition, the IC50 in series [9] amounted to 162 nM; in [2] it was 215 nM; in series [3], 114 nM; in series [4], 395 nM.
Molecule `Cn1ncc2c(N)c(-c3nc4ccccc4[nH]3)c(O)nc21` returned an EC50 in series [1] of 321 nM. Also, the results for the IC50 in [2], in series [3] and in series [4] were 3000 nM, 3000 nM and 575 nM, respectively.
In the case of `Nc1c(-c2nc3ccccc3[nH]2)c(O)nc2cnccc12`, the EC50 in series [1] came to 53 nM. Besides, the half-maximal inhibitory concentration (IC50) worked out at 10 nM in series [2], 3 nM in [3] and 57 nM in series [4].
For the molecule `Nc1c(-c2nc3ccc(N4CCOCC4)nc3[nH]2)c(=O)[nH]c2ccccc12`, the half-life stood at 0.95 h in series [5] and 1.08 h in series [7]. The molecule also returned an EC50 in [1] of 34 nM. In addition, in series [6], the clearance is 61 mL/min/kg. The molecule also came in with a bioavailability in [8] of 84%. The IC50 in series [2] came out at 47 nM; in series [3] it was 8 nM; in series [4], 48 nM.

What is called EC50 is the concentration giving half of the maximal effect. In general, IC50 refers to the concentration at which inhibition is half-maximal. Broadly, the half-life is the time needed for the level to fall by half in the phase considered. Lower therefore signals rapid decline. For orientation: clearance means the rate of elimination divided by the concentration. Lower therefore signals inefficient removal. One may read the bioavailability as dose-corrected exposure relative to a reference, in per cent. A high value points to much systemic uptake.
